The source of these data is patent US8574563B2 (Bristol-Myers Squibb Company, priority 2006, dated 2013).

In one test the test system is HCV 1b-377-neo replicon cells. Kind of test: HCV replicon assay, HCV 1b-377-neo replicon cells (1b FRET). The format is cell-based, Hepatitis C virus genotype 1b. The following applies: HCV 1b-377-neo replicon cells; HCV 1b genotype; read-out: EC50 range against HCV 1b (Table 2, Range). An outline of the steps: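 Compounds tested in HCV genotype 1b-377-neo replicon cells with a FRET read-out. Cells resistant to a reference NS5A inhibitor through a Y2065H NS5A mutation were run alongside wild-type cells.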
(In general: A replicon is a self-replicating genome or part of one, used to study replication in cells.)
Consider `COC(=O)N[C@@H](C(=O)N1CCC[C@H]1c1ncc(-c2ccc(-c3ccc(-c4cnc([C@@H]5CCCN5C(=O)C(c5ccc(Cl)cc5)N(C)C)[nH]4)cc3)cc2)[nH]1)c1ccccc1` (stereo partly drawn) [Example 84-58, methyl ((1R)-2-((2S)-2-(5-(4′-(2-((2S)-1-((4-chlorophenyl)(dimethylamino)acetyl)-2-pyrrolidinyl)-1H-imdiazol-5-yl)-4-biphenylyl)-1H-imidazol-2-yl)-1-pyrrolidinyl)-2-oxo-1-phenylethyl)carbamate], for which the 50% effective concentration (EC50) (in general, the concentration that produces a half-maximal response) lay in the range of 1 to 999 pM.

Turning to `CCC[C@H](NC(=O)OC)C(=O)N1CCC[C@H]1c1ncc(-c2ccc(-c3ccc(-c4cnc([C@@H]5CCCN5C(=O)[C@H](C)NC(=O)OC)[nH]4)cc3)cc2)[nH]1` [Example M94, methyl ((1S)-1-(((2S)-2-(5-(4′-(2-((2S)-1-((2S)-2-((methoxycarbonyl)amino)propanoyl)-2-pyrrolidinyl)-1H-imidazol-5-yl)-4-biphenylyl)-1H-imidazol-2-yl)-1-pyrrolidinyl)carbonyl)butyl) carbamate], the EC50 was in the range of 1000 to 99000 pM.

The test is the same for the next values; noted with them: Hepatitis C virus, HCV 1b-377-neo replicon cells; HCV 1b genotype; read-out: EC50 range against HCV 1b (Table 2, Range).
For the molecule `COC(=O)N[C@@H](C)C(=O)N1CCC[C@H]1c1ncc(-c2ccc(-c3ccc(-c4cnc([C@@H]5CCCN5C(=O)[C@H](Cc5cn(C)cn5)NC(=O)OC)[nH]4)cc3)cc2)[nH]1` [cj-41, methyl ((1S)-2-((2S)-2-(5-(4′-(2-((2S)-1-(N-(methoxycarbonyl)-L-alanyl)-2-pyrrolidinyl)-1H-imidazol-5-yl)-4-biphenylyl)-1H-imidazol-2-yl)-1-pyrrolidinyl)-1-((1-methyl-1H-imidazol-4-yl)methyl)-2-oxoethyl)carbamate], the concentration giving a half-maximal response (EC50) was in the range of 1 to 999 pM.

For `COC(=O)N[C@@H](C(=O)N1CCC[C@H]1c1ncc(-c2ccc(-c3ccc(-c4cnc([C@@H]5CCCN5C(=O)C(c5ccccc5F)N(C)C)[nH]4)cc3)cc2)[nH]1)c1ccccc1` (stereo partly drawn) [Example 84-59, methyl ((1R)-2-((2S)-2-(5-(4′-(2-((2S)-1-((dimethylamino)(2-fluorophenyl)acetyl)-2-pyrrolidinyl)-1H-imidazol-5-yl)-4-biphenylyl)-1H-imidazol-2-yl)-1-pyrrolidinyl)-2-oxo-1-phenylethyl)carbamate], the EC50 was in the range of 1 to 999 pM.

Regarding `CN(C)[C@@H](C(=O)N1CCC[C@H]1c1ncc(-c2ccc(-c3ccc(-c4cnc([C@@H]5CCCN5C(=O)Cc5cccs5)[nH]4)cc3)cc2)[nH]1)c1ccccc1` [Example 94-47, (1R)-N,N-dimethyl-2-oxo-1-phenyl-2-((2S)-2-(5-(4′-(2-((2S)-1-(2-thienylacetyl)-2-pyrrolidinyl)-1H-imidazol-5-yl)-4-biphenylyl)-1H-imidazol-2-yl)-1-pyrrolidinyl)ethanamine], the EC50 is 1 to 999 pM.

For the molecule `COC(=O)N[C@H](C(=O)N1[C@@H]2C[C@@H]2C[C@H]1c1ncc(-c2ccc(-c3ccc(-c4cnc([C@@H]5C[C@H]6C[C@H]6N5C(=O)CCCC[C@@H]5SC[C@@H]6NC(=O)N[C@@H]65)[nH]4)cc3)cc2)[nH]1)C(C)C` [Example M139], the half-maximal effective concentration (EC50) is 1 to 999 pM.

Take `COC(=O)N[C@@H](C)C(=O)N1CCC[C@H]1c1ncc(-c2ccc(-c3cc(F)c(-c4cnc([C@@H]5CCCN5C(=O)[C@H](C)NC(=O)OC)[nH]4)cc3F)cc2)[nH]1` [Example D52, methyl ((1S)-2-((2S)-2-(5-(2′5′-difluoro-4′-(2-((2S)-1-(N-(methoxycarbonyl)-L-alanyl)-2-pyrrolidinyl)-1H-imidazol-5-yl)-4-biphenylyl)-1H-imidazol-2-yl)-1-pyrrolidinyl)-1-methyl-2-oxoethyl)carbamate]: the EC50 was 1 to 999 pM.

With `COC(=O)N[C@@H](C(=O)N1CCC[C@H]1c1ncc(-c2ccc(-c3ccc(-c4cnc([C@@H]5CCCN5C(=O)[C@@H]5CCN(Cc6ccccc6)C5)[nH]4)cc3)cc2)[nH]1)c1ccccc1` [Example 84-17, methyl ((1R)-2-((2S)-2-(5-(4′-(2-((2S)-1-(((3R)-1-benzyl-3-pyrrolidinyl)carbonyl)-2-pyrrolidinyl)-1H-imidazol-5-yl)-4-biphenylyl)-1H-imidazol-2-yl)-1-pyrrolidinyl)-2-oxo-1-phenylethyl)carbamate], the EC50 lay within 1 to 999 pM.

In the case of `CCN(CC)[C@@H](C(=O)N1C[C@H](F)C[C@H]1c1ncc(-c2ccc(-c3ccc(-c4cnc([C@@H]5C[C@@H](F)CN5C(=O)[C@@H](c5ccccc5)N(CC)CC)[nH]4)cc3)cc2)[nH]1)c1ccccc1` [JG-17, (1R,1′R)-2,2′-(4,4′-biphenyldiylbis(1H-imidazole-5,2-diyl((2S,4R)-4-fluoro-2,1-pyrrolidinediyl)))bis(N,N-diethyl-2-oxo-1-phenylethanamine)], the EC50 was 1 to 999 pM.

Regarding `COC(=O)N[C@@H](Cc1cccnc1)C(=O)N1CCC[C@H]1c1ncc(-c2ccc(-c3ccc(-c4cnc([C@@H]5CCCN5C(=O)[C@@H](NC(=O)OC)C(C)C)[nH]4)cc3)cc2)[nH]1` [cj-83, methyl ((1S)-2-((2S)-2-(5-(4′-(2-((2S)-1-((2S)-2-((methoxycarbonyl)amino)-3-methylbutanoyl)-2-pyrrolidinyl)-1H-imidazol-5-yl)-4-biphenylyl)-1H-imidazol-2-yl)-1-pyrrolidinyl)-2-oxo-1-(3-pyridinylmethyl)ethyl)carbamate], the EC50 was 1 to 999 pM.

With `COC(=O)N[C@@H](C)C(=O)N1CCC[C@H]1c1ncc(-c2ccc(-c3ccc(-c4cnc([C@@H]5CCCN5C(=O)[C@H](Cc5cn(Cc6ccccc6)cn5)NC(=O)OC)[nH]4)cc3)cc2)[nH]1` [cj-77, methyl ((1S)-2-((2S)-2-(5-(4′-(2-((2S)-1-((2S)-3-(1-benzyl-1H-imidazol-4-yl)-2-((methoxycarbonyl)amino)propanoyl)-2-pyrrolidinyl)-1H-imidazol-5-yl)-4-biphenylyl)-1H-imidazol-2-yl)-1-pyrrolidinyl)-1-methyl-2-oxoethyl)carbamate], the EC50 fell in the range of 1 to 999 pM.

For `COC(=O)N[C@@H](C(=O)N1CCC[C@H]1c1ncc(-c2ccc(-c3ccc(-c4cnc([C@@H]5CCCN5C(=O)C5(c6ccccc6)CC5)[nH]4)cc3)cc2)[nH]1)c1ccccc1` [Example 84-77, methyl ((1R)-2-oxo-1-phenyl-2-((2S)-2-(5-(4′-(2-((2S)-1-((1-phenylcyclopropyl)carbonyl)-2-pyrrolidinyl)-1H-imidazol-5-yl)-4-biphenylyl)-1H-imidazol-2-yl)-1-pyrrolidinyl)ethyl)carbamate], the EC50 was 1 to 999 pM.

Regarding `CN(CC(=O)N1CCC[C@H]1c1ncc(-c2ccc(-c3ccc(-c4cnc([C@@H]5CCCN5C(=O)CN(C)Cc5ccccc5)[nH]4)cc3)cc2)[nH]1)Cc1ccccc1` [Example 24-4e, 2,2′-(4,4′-biphenyldiylbis(1H-imidazole-5,2-diyl(2S)-2,1-pyrrolidinediyl))bis(N-benzyl-N-methyl-2-oxoethanamine)], the EC50 lay in the range of 1000 to 99000 pM.

For `COC(=O)N[C@@H](C(=O)N1CCC[C@H]1c1ncc(-c2ccc(-c3ccc(-c4cnc([C@@H]5CCCN5C(=O)[C@H](NC(=O)OC)C(C)C)[nH]4)cc3)cc2)[nH]1)C(C)C` [Example 26, methyl ((1R)-1-(((2S)-2-(5-(4′-(2-((2S)-1-((2R)-2-((methoxycarbonyl)amino)-3-methylbutanoyl)-2-pyrrolidinyl)-1H-imidazol-5-yl)-4-biphenylyl)-1H-imidazol-2-yl)-1-pyrrolidinyl)carbonyl)-2-methylpropyl)carbamate], the EC50 fell in the range of 1000 to 99000 pM.

Regarding `CN(C)[C@@H](C(=O)N1CCC[C@H]1c1ncc(-c2ccc(-c3ccc(-c4cnc([C@@H]5CCCN5C(=O)Cc5c[nH]c6ccccc56)[nH]4)cc3)cc2)[nH]1)c1ccccc1` [Example 94-56, (1R)-2-((2S)-2-(5-(4′-(2-((2S)-1-(1H-indol-3-ylacetyl)-2-pyrrolidinyl)-1H-imidazol-5-yl)-4-biphenylyl)-1H-imidazol-2-yl)-1-pyrrolidinyl)-N,N-dimethyl-2-oxo-1-phenylethanamine], the concentration for a half-maximal effect (EC50) lay within 1 to 999 pM.

Take `COC(=O)N[C@@H](C)C(=O)N1CCC[C@H]1c1nc(-c2ccc(-c3ccc(-c4[nH]c([C@@H]5CCCN5C(=O)[C@H](C)NC(=O)OC)nc4C)cc3)cc2)c(C)[nH]1` [Example E5k, methyl ((1S)-2-((2S)-2-(4-(4′-(2-((2S)-1-(N-(methoxycarbonyl)-L-alanyl)-2-pyrrolidinyl)-5-methyl-1H-imidazol-4-yl)-4-biphenylyl)-5-methyl-1H-imidazol-2-yl)-1-pyrrolidinyl)-1-methyl-2-oxoethyl)carbamate]: the EC50 lay within 1 to 999 pM.

As to `O=C(Nc1cccnc1)N[C@@H](C(=O)N1CCC[C@H]1c1ncc(-c2ccc(-c3ccc(-c4cnc([C@@H]5CCCN5C(=O)[C@H](NC(=O)Nc5cccnc5)c5ccccc5)[nH]4)cc3)cc2)[nH]1)c1ccccc1` [Example 25-8, N,N″-(4,4′-biphenyldiylbis(1H-imidazole-5,2-diyl(2S)-2,1-pyrrolidinediyl((1R)-2-oxo-1-phenyl-2,1-ethanediyl)))bis(3-(3-pyridinyl)urea)], the EC50 lay in the range of 1 to 999 pM.

For `COC(=O)N[C@@H](C(=O)N1CCC[C@H]1c1ncc(-c2ccc(-c3ccc(-c4cnc([C@@H]5CCCN5C(=O)Cc5cn(C)cn5)[nH]4)cc3)cc2)[nH]1)c1ccccc1` [Example 62, methyl ((1R)-2-((2S)-2-(5-(4′-(2-((2S)-1-((1-methyl-1H-imidazol-4-yl)acetyl)-2-pyrrolidinyl)-1H-imidazol-5-yl)-4-biphenylyl)-1H-imidazol-2-yl)-1-pyrrolidinyl)-2-oxo-1-phenylethyl)carbamate], the EC50 lay in the range of 1 to 999 pM.

Take `O=C(Cc1ccccc1CN1CCOCC1)N1CCC[C@H]1c1ncc(-c2ccc(-c3ccc(-c4cnc([C@@H]5CCCN5C(=O)[C@@H](c5ccccc5)N5CCCCC5)[nH]4)cc3)cc2)[nH]1` [Example 107-26, 4-(2-(2-oxo-2-((2S)-2-(5-(4′-(2-((2S)-1-((2R)-2-phenyl-2-(1-piperidinyl)acetyl)-2-pyrrolidinyl)-1H-imidazol-5-yl)-4-biphenylyl)-1H-imidazol-2-yl)-1-pyrrolidinyl)ethyl)benzyl) morpholine]: the EC50 lay within 1 to 999 pM.
